From patent publication US20070099822A1, “Regulation of tissue mineralization and phosphate metabolism by asarm peptides” (priority 2003, published 2007)
Entries after “also recorded” stand apart in the source; their conditions may differ.

What was measured:
MEPE-PHEX interaction = molecular target: T1, MEPE-PHEX interaction (Homo sapiens, UniProt P78562); test: Surface plasmon resonance, peptide solution competition of secPHEX-MEPE binding
T1 construct: to generate a soluble, secreted form of PHEX; made in house; host or cells: secPHEX: mammalian cells (gift, University of Montreal); MEPE: S. frugiperda insect cells
T1 sequence (P78562 46-749 limits assumed): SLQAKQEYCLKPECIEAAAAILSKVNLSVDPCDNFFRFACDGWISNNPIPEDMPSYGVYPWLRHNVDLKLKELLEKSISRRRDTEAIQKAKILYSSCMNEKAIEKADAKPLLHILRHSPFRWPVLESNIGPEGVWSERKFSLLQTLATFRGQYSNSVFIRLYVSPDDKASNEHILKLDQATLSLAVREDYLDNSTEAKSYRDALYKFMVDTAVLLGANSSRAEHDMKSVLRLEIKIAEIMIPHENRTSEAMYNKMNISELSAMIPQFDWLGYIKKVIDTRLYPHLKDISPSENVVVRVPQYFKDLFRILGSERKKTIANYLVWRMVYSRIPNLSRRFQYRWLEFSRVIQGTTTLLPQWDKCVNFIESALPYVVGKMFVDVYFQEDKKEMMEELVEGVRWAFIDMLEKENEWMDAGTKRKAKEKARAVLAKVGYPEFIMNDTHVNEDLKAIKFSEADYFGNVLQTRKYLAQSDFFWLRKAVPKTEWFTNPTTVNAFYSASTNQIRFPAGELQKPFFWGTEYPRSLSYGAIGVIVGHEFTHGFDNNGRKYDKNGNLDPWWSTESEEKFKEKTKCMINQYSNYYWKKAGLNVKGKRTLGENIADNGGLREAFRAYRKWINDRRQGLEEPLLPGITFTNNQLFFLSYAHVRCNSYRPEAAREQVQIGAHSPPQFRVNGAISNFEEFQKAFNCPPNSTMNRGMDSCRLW
Excerpt: Surface Plasmon Resonance: Synthetic peptides & competitive PHEX-MEPE binding studies. For these experiments CM-5 chips containing flow-cells immobilized with MEPE, PHEX and IgG ligands at 6000 RU were used. Just prior to SPR injection, stock solution of specific-peptide (as defined for each experiment; see Table 1), and dissolved in analyte buffer (HBS-P—Zn) […] The following equation was used to compute KDapp values: RU=Bmax/inhib×(peptide(μM))/KDapp+(peptide(μM)). The Bmax/inh value represents the maximal percentage inhibition change in RU (i.e., PHEX-MEPE binding) relative to the “non-peptide” control (0% inhibition of binding), using a constant analyte flow-solution of secPHEX of 250 nM against immobilized MEPE ligand at 6000 RU. […] The control MEPE-RGD peptide had no effect on MEPE-PHEX interactions.

[1] = molecular target: anti-ASARM-peptide polyclonal; test: Competitive ELISA, biotinylated against non-biotinylated ASARM-peptide; format: binding, Rabbit; details: 0.5 ng/mL biotinylated ASARM-peptide
Excerpt: MEPE ASARM-peptide (phosphorylated and non-phosphorylated) & polyclonal antibodies. The carboxy terminal region of MEPE containing residues 507-525 were synthesized using routine techniques by multiple peptide cloning systems (Multiple Peptide Systems, San Diego, Calif.). For ELISA studies, both phosphorylated and non-phosphorylated peptides were synthesized. The phosphorylated-form of the peptide (NH2—RDDSSESSDSG(Sp)S(Sp)E(Sp)DGD-COOH; SEQ ID NO. 14) was biotinylated using a Pierce EZ-Link Sulfo-NHS-LC-Biotinylation Kit (Pierce & Co, Rockford, Ill.) and the peptide de-salted using an Amersham Biosciences PD-10 Desalting column (Amersham Biosciences, Piscataway, N.J.). […] Rabbit polyclonal antibodies raised against ASARM-peptide NH2-[…]-COOH (SEQ ID NO. 5) were used in these studies and have been previously described (Rowe, et al., Bone 34:303-319, 2004). Pre-immune sera from the same rabbits were used as negative controls.
ELISA Assay. A new enzyme-linked-immunosorbent-assay (ELISA) was designed to specifically quantitate ASARM-peptide(s) in sera from humans and mice. […]

Kd (MEPE-PHEX interaction; 250 nM secPHEX, MEPE 6000 RU, read-out: apparent KDapp, solution competition of MEPE-PHEX binding): ~35 µM
KD of quenching in competitive ELISA [1]: 7.5 ng/mL
Substance: H-CFSSRRRDDSSESSDSGSSSESDGD-OH [ASARM-peptide]
inhibition of MEPE-PHEX interaction (MEPE-PHEX interaction; peptide pre-mixed with secPHEX, MEPE-RGD up to 85 μM): able to inhibit; also recorded: dramatic dose-dependent inhibition
Qmax (quench maximum) [1]: 98.7%
